According to patent publication US20240051985A1, “METTL3 MODULATORS” (ACCENT THERAPEUTICS, INC., priority 2020, published 2024):

Experiments:
[1] = biological target: METTL3/METTL14 (Homo sapiens, UniProt Q86U44); assay: METTL3-14 standard enzyme assay (3H-SAM flashplate); details: METTL3 biochemical assay
In short: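 METTL3/METTL14 (2.5 nM) preincubated 5 min, then reacted with 3′-biotinylated RNA UCUGGACUAAA (100 nM) and 3H-SAM (100 nM) for 30 min at ambient temperature in 20 mM HEPES pH 7.5, 50 mM KCl, 250 μM MgCl2, 1 mM DTT. Quenched with 15 μM cold SAM; product captured on streptavidin flashplates, scintillation counted.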

[2] = biological target: PRMT5-MEP50 (Homo sapiens, UniProt O14744); assay: PRMT5 assay (3H-SAM flashplate); details: PRMT5 biochemical assay
Sequence of PRMT5-MEP50 (O14744 whole entry): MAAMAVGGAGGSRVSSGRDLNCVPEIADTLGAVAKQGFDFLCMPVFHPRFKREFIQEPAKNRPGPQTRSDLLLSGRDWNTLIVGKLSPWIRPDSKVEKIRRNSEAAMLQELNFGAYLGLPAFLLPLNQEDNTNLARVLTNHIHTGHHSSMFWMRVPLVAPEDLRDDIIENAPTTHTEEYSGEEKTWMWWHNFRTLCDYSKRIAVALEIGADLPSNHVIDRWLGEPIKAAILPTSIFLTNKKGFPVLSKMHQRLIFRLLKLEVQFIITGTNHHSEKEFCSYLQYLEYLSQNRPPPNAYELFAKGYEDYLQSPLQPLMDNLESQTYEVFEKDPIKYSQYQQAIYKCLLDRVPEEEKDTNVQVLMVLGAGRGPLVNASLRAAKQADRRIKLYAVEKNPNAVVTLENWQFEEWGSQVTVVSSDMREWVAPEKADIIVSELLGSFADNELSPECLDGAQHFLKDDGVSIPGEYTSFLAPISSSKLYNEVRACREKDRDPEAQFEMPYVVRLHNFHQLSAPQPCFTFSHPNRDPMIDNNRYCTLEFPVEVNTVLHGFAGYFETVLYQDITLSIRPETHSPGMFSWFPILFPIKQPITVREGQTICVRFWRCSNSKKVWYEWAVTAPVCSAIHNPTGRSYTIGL
Sequence of PRMT5-MEP50 (Q9BQA1 whole entry partner): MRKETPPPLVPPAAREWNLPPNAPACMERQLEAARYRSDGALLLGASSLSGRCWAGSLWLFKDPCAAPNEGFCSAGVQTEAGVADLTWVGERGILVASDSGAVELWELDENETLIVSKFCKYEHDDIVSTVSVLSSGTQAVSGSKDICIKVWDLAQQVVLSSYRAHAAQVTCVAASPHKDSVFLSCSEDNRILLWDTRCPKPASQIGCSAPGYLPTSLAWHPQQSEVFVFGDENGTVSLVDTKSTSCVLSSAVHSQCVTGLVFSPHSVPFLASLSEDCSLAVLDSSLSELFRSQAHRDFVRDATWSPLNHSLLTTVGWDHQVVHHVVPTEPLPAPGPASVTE
Procedure: Assays were performed in a 25 μl-volume in 384-well V-bottom polypropylene microplates (Greiner Bio-One, cat. No. 781280) at ambient temperature. Optimized 1× assay buffer was 20 mM Tris-HCl pH 8.0, 1 mM DTT, […]. For compound screening PRMT5-MEP50 (final concentration, f.c.=2.5 nM) was added using a Multidrop Combi (ThermoFisher Scientific, Waltham, MA) and preincubated for 5 min. Reactions were started by adding 3′ biotinylated histone H4 peptide acetylated on serine 1 (Ac-[…]-Biotin) (f.c.=100 nM) and 3H-SAM (f.c.=250 nM) substrates. Reactions proceeded for 60 minutes and were quenched with excess non-radioactive SAM (f.c.=15 μM). The reactions were then transferred to streptavidin-coated flashplates and incubated for 2 hours at 25° C. Following two washing cycles with 0.1% Tween-20, the plates were sealed and read on a TopCount (PerkinElmer, Waltham, MA) plate-based scintillation counter. For determination of kinetic parameters, reaction times were optimized so that measurements were taken during the initial velocity phase of the reaction.

Sequence of METTL3/METTL14 (Q86U44 whole entry, species assumed): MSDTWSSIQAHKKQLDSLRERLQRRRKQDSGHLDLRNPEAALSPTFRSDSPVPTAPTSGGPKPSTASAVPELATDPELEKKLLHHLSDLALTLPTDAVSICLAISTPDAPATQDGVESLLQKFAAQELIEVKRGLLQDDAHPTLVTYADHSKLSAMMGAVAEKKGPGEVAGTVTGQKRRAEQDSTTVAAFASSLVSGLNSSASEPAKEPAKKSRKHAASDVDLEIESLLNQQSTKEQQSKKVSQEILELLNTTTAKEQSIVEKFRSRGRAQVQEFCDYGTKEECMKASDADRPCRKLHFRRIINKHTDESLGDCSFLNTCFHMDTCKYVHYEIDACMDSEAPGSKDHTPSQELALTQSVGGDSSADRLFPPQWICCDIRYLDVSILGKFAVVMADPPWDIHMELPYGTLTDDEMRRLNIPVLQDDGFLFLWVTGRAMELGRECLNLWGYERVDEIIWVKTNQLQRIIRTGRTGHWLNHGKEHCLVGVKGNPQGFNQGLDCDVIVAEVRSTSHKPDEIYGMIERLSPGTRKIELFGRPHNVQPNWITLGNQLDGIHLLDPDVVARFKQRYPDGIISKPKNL
Sequence of METTL3/METTL14 (Q9HCE5 whole entry partner, species assumed): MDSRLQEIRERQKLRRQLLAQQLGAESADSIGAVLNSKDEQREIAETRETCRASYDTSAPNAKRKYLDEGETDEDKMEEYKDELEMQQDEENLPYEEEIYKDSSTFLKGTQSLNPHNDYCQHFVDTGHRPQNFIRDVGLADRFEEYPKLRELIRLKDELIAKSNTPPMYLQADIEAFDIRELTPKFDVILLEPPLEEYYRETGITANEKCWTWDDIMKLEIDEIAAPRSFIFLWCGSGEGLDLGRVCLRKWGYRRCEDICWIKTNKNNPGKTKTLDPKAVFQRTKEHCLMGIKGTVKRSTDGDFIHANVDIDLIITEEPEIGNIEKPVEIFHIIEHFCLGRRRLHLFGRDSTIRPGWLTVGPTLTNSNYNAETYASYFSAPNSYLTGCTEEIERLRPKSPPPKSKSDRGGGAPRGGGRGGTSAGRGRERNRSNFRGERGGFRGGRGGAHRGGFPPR

Compound	IC50 ([1]; Table 4) [µM]	IC50 ([2]; Table 4) [µM]	IC50 ([1]; Table 3) [µM]	IC50 ([2]; Table 3) [µM]
Cn1ccc(-c2cn([C@@H]3O[C@H](C(=O)NCc4cnccn4)[C@@H](O)[C@H]3O)c3ncnc(N)c23)n1 [Compound I-20]			0.1 to 1	≥ 1
CN1CCC(NC(=O)[C@H]2O[C@@H](n3cc(-c4ccn(C)n4)c4c(N)ncnc43)[C@H](O)[C@@H]2O)CC1 [Compound I-25]			0.1 to 1	0.01 to 0.1
COCCN(C(=O)[C@H]1O[C@@H](n2cc(-c3ccn(C)n3)c3c(N)ncnc32)[C@H](O)[C@@H]1O)C1CCNCC1 [Compound I-6]			≥ 1	< 0.01
Nc1ncnc2c1c(-n1cccn1)cn2[C@H]1C[C@H](O)[C@@H](C(=O)Nc2ccc3nc(NC4CCC4)[nH]c3c2)O1 [Compound I-30]			< 0.01	0.1 to 1
COCCN(C(=O)[C@H]1O[C@@H](n2ccc3c(N)ncnc32)[C@H](O)[C@@H]1O)c1ccc2ccc(N3CCC3)nc2c1 [Compound I-12]			≥ 1	≥ 1
Nc1ncnc2c1ccn2[C@@H]1O[C@H](C(=O)NCC2CCN(CC(F)F)CC2)[C@@H](O)[C@H]1O [Compound I-28]			≥ 1	≥ 1
COCCNC(=O)[C@H]1O[C@@H](n2cc(-c3ccn(C)n3)c3c(N)ncnc32)[C@H](O)[C@@H]1O [Compound I-3]			≥ 1	≥ 1
CN(C)CCNC(=O)[C@H]1O[C@@H](n2cc(-c3ccn(C)n3)c3c(N)ncnc32)[C@H](O)[C@@H]1O [Compound I-4]			≥ 1	0.01 to 0.1
Cn1ccc(-c2cn([C@@H]3O[C@H](C(=O)N(CCCO)C4CCNCC4)[C@@H](O)[C@H]3O)c3ncnc(N)c23)n1 [Compound I-8]			0.1 to 1	< 0.01
CNc1ccc2ccc(N(CC[C@H](N)C(=O)O)C(=O)[C@H]3O[C@@H](n4cc(-c5ccn(C)n5)c5c(N)ncnc54)[C@H](O)[C@@H]3O)cc2n1 [Compound I-38, (2S)-2-amino-4-{1-[(2S,3S,4R,5R)-5-[4-amino-5-(1-methyl-1H-pyrazol-3-yl)-7H-pyrrolo[2,3-d]pyrimidin-7-yl]-3,4-dihydroxyoxolan-2-yl]-N-[2-(methylamino)quinolin-7-yl]formamido}butanoic acid]	< 0.01	0.1 to 1		
(2S,3S,4R,5R)-5-[4-amino-5-(1-methyl-1H-pyrazol-3-yl)-7H-pyrrolo[2,3-d]pyrimidin-7-yl]-3,4-dihydroxy-N-{3-[(methylcarbamoyl)amino]propyl}-N-(1-methylpiperidin-4-yl)oxolane-2-carboxamide [Compound I-50]	≥ 1	0.1 to 1		
COCCCN(C(=O)[C@H]1O[C@@H](n2cc(-c3ccn(C)n3)c3c(N)ncnc32)[C@H](O)[C@@H]1O)C1CCNCC1 [Compound I-7]			≥ 1	0.01 to 0.1

Next, values leading:

IC50 ([1]; Table 4) [µM]	IC50 ([2]; Table 4) [µM]	IC50 ([1]; Table 3) [µM]	IC50 ([2]; Table 3) [µM]	Compound
≥ 1	0.01 to 0.1			CN1CCC(N(CCCC(=O)O)C(=O)[C@H]2O[C@@H](n3cc(-c4ccn(C)n4)c4c(N)ncnc43)[C@H](O)[C@@H]2O)CC1 [Compound I-58, 4-{1-[(2S,3S,4R,5R)-5-[4-amino-5-(1-methyl-1H-pyrazol-3-yl)-7H-pyrrolo[2,3-d]pyrimidin-7-yl]-3,4-dihydroxyoxolan-2-yl]-N-(1-methylpiperidin-4-yl)formamido}butanoic acid]
0.1 to 1	0.1 to 1			CN1CCC(N(C[C@H]2CCNC2)C(=O)[C@H]2O[C@@H](n3cc(-c4ccn(C)n4)c4c(N)ncnc43)[C@H](O)[C@@H]2O)CC1 [Compound I-154]
0.1 to 1	0.01 to 0.1			CN1CCC(N(CCCNC(=O)OCc2ccccc2)C(=O)[C@H]2O[C@@H](n3cc(-c4ccn(C)n4)c4c(N)ncnc43)[C@H](O)[C@@H]2O)CC1 [Compound I-49, benzyl N-(3-{1-[(2S,3S,4R,5R)-5-[4-amino-5-(1-methyl-1H-pyrazol-3-yl)-7H-pyrrolo[2,3-d]pyrimidin-7-yl]-3,4-dihydroxyoxolan-2-yl]-N-(1-methylpiperidin-4-yl)formamido}propyl)carbamate]
0.1 to 1	0.01 to 0.1			Cn1ccc(-c2cn([C@@H]3O[C@H](C(=O)N4CCc5[nH]cnc5C4)[C@@H](O)[C@H]3O)c3ncnc(N)c23)n1 [Compound I-217]
0.1 to 1	0.1 to 1			Cn1ccc(-c2cn([C@@H]3O[C@H](C(=O)NC4CCN5CCCC5C4)[C@@H](O)[C@H]3O)c3ncnc(N)c23)n1 (stereo partly shown) [Compound I-206]
≥ 1	0.01 to 0.1			CN1CCC[C@H](NC(=O)[C@H]2O[C@@H](n3cc(-c4ccn(C)n4)c4c(N)ncnc43)[C@H](O)[C@@H]2O)C1 [Compound I-230]
0.1 to 1	0.1 to 1			Cn1ccc(-c2cn([C@@H]3O[C@H](C(=O)NC4CCN(C5CCC5)CC4)[C@@H](O)[C@H]3O)c3ncnc(N)c23)n1 [Compound I-224]
≥ 1	≥ 1			Cn1ccc(-c2cn([C@@H]3O[C@H](C(=O)NC4CCS(=O)(=O)C4)[C@@H](O)[C@H]3O)c3ncnc(N)c23)n1 (stereo partly shown) [Compound I-213]
0.01 to 0.1	0.01 to 0.1			Cn1ccc(-c2cn([C@@H]3O[C@H](C(=O)NC4CCN(CC5CCC5)CC4)[C@@H](O)[C@H]3O)c3ncnc(N)c23)n1 [Compound I-223]
0.1 to 1	0.1 to 1			C[C@H]1C[C@@H](NC(=O)[C@H]2O[C@@H](n3cc(-c4ccn(C)n4)c4c(N)ncnc43)[C@H](O)[C@@H]2O)CCN1C [Compound I-232]
≥ 1	0.01 to 0.1			CN1CCC(N(CC2CN(C)C2)C(=O)[C@H]2O[C@@H](n3cc(-c4ccn(C)n4)c4c(N)ncnc43)[C@H](O)[C@@H]2O)CC1 [Compound I-47]
0.01 to 0.1	0.01 to 0.1			Cn1ccc(-c2cn([C@@H]3O[C@H](C(=O)NC4CCN(Cc5ccccc5)CC4)[C@@H](O)[C@H]3O)c3ncnc(N)c23)n1 [Compound I-201]
≥ 1	≥ 1			CN1CCC(NC(=O)[C@H]2C[C@@H](n3cc(-c4ccn(C)n4)c4c(N)ncnc43)C[C@@H]2O)CC1 [Compound I-55, (1S,2S,4R)-4-(4-amino-5-(1-methyl-1H-pyrazol-3-yl)-7H-pyrrolo[2,3-d]pyrimidin-7-yl)-2-hydroxy-N-(1-methylpiperidin-4-yl)cyclopentane-1-carboxamide]
0.1 to 1	≥ 1			Cn1ccc(-c2cn([C@@H]3O[C@H](C(=O)NC4CCN(c5ccccn5)CC4)[C@@H](O)[C@H]3O)c3ncnc(N)c23)n1 [Compound I-222]
